# What was measured:
# Type in all cases: in vivo
# [1] = test system: soybean (Glycine max) explants; experiment: Comparison of greenhouse selection effectiveness between BSU and Ecomazayr for ALS selectable marker
# Procedure: (§1) The explants were transplanted to soil for further selection and development of transgenic shoots after immersed in Soy2 medium for 2 day and in Soy2 medium with 2 μM bensulfuron-methyl for 5 days. The selection is performed for three weeks in GH by application with various concentrations of bensulfuron-methyl using mounted cotton ball or daily liquid spay methods. The recovered shoots from each treatment were subjected for Taqman assay to confirm the transgenic frequency. The application solution contains bensulfuron-methyl, 1 g/L MES and BAP (2 mg./L for first week, and 1 mg/L for second and third weeks, or 2 mg/L or 1 mg/l for three weeks). Alternatively, the transplanted explants in soil can be directly spayed with selection solution containing commercial herbicide Ecomazayr (1-8 μM isopropylamine salt of imazapyr), 1-2 mg/L BAP and 1 g/L MES for 3 weeks.
# An experiment was conducted to compare the selection effectiveness in greenhouse between BSU and commercial herbicide Ecomazayr for ALS selectable marker using current transformation method.
# [2] = test system: soybean (Glycine max) explants; experiment: Semi-in-planta soybean transformation, greenhouse bensulfuron-methyl selection for ALS marker, Taqman assay of recovered shoots; details: for Escape rate / Number of events / TF: 3 weeks greenhouse selection
# Procedure: (§2) Sterilized mature soybean (Glycine max) seeds were used. Prior to Agrobacterium inoculation, seeds were soaked in sterilized H2O or liquid medium Soy1 for overnight (12-18 hours) at 22-24° C. Liquid medium Soy 1 contains 3.1 g/L Gamborg's B5 basal medium and 2 mg/L BAP
# (§3) The seed coat was removed from the soaked seed. One of the cotyledons and both primary leaves were carefully removed and discarded. Next, the region containing the epicotyl, apical meristem and the cotyledonary node were wounded by making several cuts with the sharp end of scalpel blade.
# (§4) Agrobacterium tumefaciens strain [Chry5d3 recA−] was used. The Agrobacterium harbored a binary vector containing a selectable marker and gene of interest, specifically construct 23093 containing EPSPS selectable marker driven by translation elongation factor EF-1 alpha/Tu promoter and AmCyan gene driven by Cestrum Yellow leaf curl virus promoter (prCMP), construct18891 containing codon-optimized Acetolactate synthase (ALS) double mutant (P191A, W568L) from Nicotiana tabacum for soybean and AmCyan gene driven by prCMP, and construct 22296 containing codon-optimized Acetolactate synthase (ALS) double mutant (P191A, W568L) from Nicotiana tabacum for soybean driven by translation elongation factor EF-1 alpha/Tu promoter, including the first intron and neighboring 5′-UTR, from soybean (Williams 82) prGmEF-02. Agrobacterium culture was streaked from −80° C. from glycerol stock onto YP plates containing 100 mg/L ampicillin and 500 mg/L spectinomycin appropriate antibiotics and grown in a 23° C. incubator. Before inoculation with explants, Agrobacterium cells were collected from the plate and were uniformly suspended in liquid infection medium SoyInf in a sterile disposable 50 ml centrifuge tube and diluted to OD A660 of approximately 0.3 to 0.6. A final concentration of 40-80 mg/L (200-400 uM) acetosyringone was added to induce virulence gene expression. Dithiothreitol (DTT) was added to a final concentration of 150 μg/ml. SoyInf contains 1.1 g/L MS basal salt mixture, 20 g/L sucrose, 10 g/L glucose, 4 g/L MES, 1 ml/L Gamborg's B5 vitamins (1000×) and 2 mg/L zeatin riboside.
# (§5) The wounded explants were immediately infected with Agrobacterium by immersing them with the Agrobacterium suspension, and then incubated for 18 hours in dark at room temperature. After infection, the explants were removed from the Agrobacterium suspension and transferred to petri dishes for co-cultivation in an airtight plastic container. The co-cultivation plates were incubated for 3-5 days at 22±1° C. in the dark, with explants placed adaxial side up.
# as §1
# To obtain an optimal selection conditions and methods for ALS selection, a side-by-side comparison experiment was conducted. Transgenic events can be recovered without selection in Greenhouse at more than 18% transformation frequency with 73% escape rate. […] By using cotton ball method for application of bensulfuron-methyl, high transformation frequency (˜40%) with high single copy event rate (50%) was obtained. […]
# [3] = test system: soybean (Glycine max) explants; experiment: Semi-in-planta soybean transformation, greenhouse glyphosate selection for EPSPS marker, Taqman assay of recovered shoots; details: 3 weeks greenhouse selection, 48 explants
# Procedure: as §2, §3, §4, §5
# After 2 day in Soy2 medium and 5 days in Soy2 medium with 100 μM glyphosate, the explants were transplanted to soil for further selection and development of transgenic shoots. The selection is performed for three weeks in GH by application with various concentrations of glyphosate using mounted cotton ball or daily liquid spay methods. The recovered shoots from each treatment were subjected for Taqman assay to confirm the transgenic frequency. The application solution contains glyphosate, 1 g/L MES and BAP (2 mg./L for first week, and 1 mg/L for second and third weeks, or 2 mg/L or 1 mg/l for three weeks).
# To obtain an optimal selection conditions and methods for EPSPS selection, a side-by-side comparison experiment was conducted. Transgenic events can be recovered without selection in Greenhouse at 18% transformation frequency with more than 80% escape rate. […] Similar results can also be achieved by daily spay of 150 μM or more of glyphosate with few escapes.
# [4] = greenhouse selection 3 μM BSU, 56 explants
# [5] = cotton ball, 3 μM bensulfuron-methyl, 40 explants
# [6] = cotton ball, 6 μM bensulfuron-methyl, 48 explants
# [7] = cotton ball, 9 μM bensulfuron-methyl, 48 explants
# [8] = daily spray, 3 μM bensulfuron-methyl, 48 explants
# [9] = daily spray, 4 μM bensulfuron-methyl, 48 explants
# [10] = daily spray, 5 μM bensulfuron-methyl, 48 explants
# [11] = daily spray, 6 μM bensulfuron-methyl, 48 explants
# [12] = daily spray, 7 μM bensulfuron-methyl, 48 explants
# [13] = daily spray, 8 μM bensulfuron-methyl, 48 explants
# [14] = daily spray, 9 μM bensulfuron-methyl, 48 explants
# [15] = daily spray, 10 μM bensulfuron-methyl, 48 explants
# [16] = greenhouse selection 1 μM imazapyr, 56 explants
# [17] = greenhouse selection 2 μM imazapyr, 56 explants
# [18] = greenhouse selection 3 μM imazapyr, 56 explants
# [19] = greenhouse selection 4 μM imazapyr, 56 explants
# [20] = greenhouse selection 5 μM imazapyr, 56 explants
# [21] = greenhouse selection 6 μM imazapyr, 56 explants
# [22] = greenhouse selection 7 μM imazapyr, 52 explants
# [23] = greenhouse selection 8 μM imazapyr, 54 explants
smiles,measurement,setting,value
COC(=O)c1ccccc1CS(=O)(=O)NC(=O)Nc1nc(OC)cc(OC)n1 [bensulfuron-methyl],Number of escapes,[1]; [4],0
same,Number of events,[1]; [4],12
same,Transformation frequency (%),[1]; [4],21.4%
same,escape events recovered,[2]; 3 μM or higher concentrations of bensulfuron-methyl,No escape event
same,Escape rate,[2]; [5],0.0%
same,Number of events,[2]; [5],16
same,TF,[2]; [5],40.0%
same,Escape rate,[2]; [6],0.0%
same,Number of events,[2]; [6],13
same,TF,[2]; [6],27.1%
same,Escape rate,[2]; [7],0.0%
same,Number of events,[2]; [7],9
same,TF,[2]; [7],18.8%
same,Escape rate,[2]; [8],0.0%
same,Number of events,[2]; [8],18
same,TF,[2]; [8],37.5%
same,Escape rate,[2]; [9],0.0%
same,Number of events,[2]; [9],10
same,TF,[2]; [9],20.8%
same,Escape rate,[2]; [10],0.0%
same,Number of events,[2]; [10],10
same,TF,[2]; [10],20.8%
same,Escape rate,[2]; [11],0.0%
same,Number of events,[2]; [11],10
same,TF,[2]; [11],20.8%
same,Escape rate,[2]; [12],0.0%
same,Number of events,[2]; [12],6
same,TF,[2]; [12],12.5%
same,Escape rate,[2]; [13],0.0%
same,Number of events,[2]; [13],11
same,TF,[2]; [13],22.9%
same,Escape rate,[2]; [14],0.0%
same,Number of events,[2]; [14],12
same,TF,[2]; [14],25.0%
same,Escape rate,[2]; [15],0.0%
same,Number of events,[2]; [15],8
same,TF,[2]; [15],16.7%
O=C(O)CNCP(=O)(O)O [glyphosate],Escape rate,"[3]; cotton ball, 100 μM glyphosate",2.1%
same,Number of events,"[3]; cotton ball, 100 μM glyphosate",16
same,Transformation Frequency,"[3]; cotton ball, 100 μM glyphosate",33.3%
same,Escape rate,"[3]; cotton ball, 125 μM glyphosate",0.0%
same,Number of events,"[3]; cotton ball, 125 μM glyphosate",25
same,Transformation Frequency,"[3]; cotton ball, 125 μM glyphosate",52.1%
same,Escape rate,"[3]; cotton ball, 150 μM glyphosate",0.0%
same,Number of events,"[3]; cotton ball, 150 μM glyphosate",24
same,Transformation Frequency,"[3]; cotton ball, 150 μM glyphosate",50.0%
same,Number of events,"[3]; cotton ball, 175 μM glyphosate",23
same,Transformation Frequency,"[3]; cotton ball, 175 μM glyphosate",47.9%
same,Escape rate,"[3]; daily spray, 100 μM glyphosate",2.1%
same,Number of events,"[3]; daily spray, 100 μM glyphosate",11
same,Transformation Frequency,"[3]; daily spray, 100 μM glyphosate",22.9%
same,Escape rate,"[3]; daily spray, 125 μM glyphosate",6.3%
same,Number of events,"[3]; daily spray, 125 μM glyphosate",13
same,Transformation Frequency,"[3]; daily spray, 125 μM glyphosate",27.1%
same,Escape rate,"[3]; daily spray, 150 μM glyphosate",2.1%
same,Number of events,"[3]; daily spray, 150 μM glyphosate",20
same,Transformation Frequency,"[3]; daily spray, 150 μM glyphosate",41.7%
same,Escape rate,"[3]; daily spray, 175 μM glyphosate",6.3%
same,Number of events,"[3]; daily spray, 175 μM glyphosate",22
same,Transformation Frequency,"[3]; daily spray, 175 μM glyphosate",45.8%
same,Escape rate,"[3]; daily spray, 200 μM glyphosate",6.3%
same,Number of events,"[3]; daily spray, 200 μM glyphosate",20
same,Transformation Frequency,"[3]; daily spray, 200 μM glyphosate",41.7%
same,Escape rate,"[3]; daily spray, 250 μM glyphosate",4.2%
same,Number of events,"[3]; daily spray, 250 μM glyphosate",15
same,Transformation Frequency,"[3]; daily spray, 250 μM glyphosate",31.3%
same,Escape rate,"[3]; daily spray, 300 μM glyphosate",2.1%
same,Number of events,"[3]; daily spray, 300 μM glyphosate",23
same,Transformation Frequency,"[3]; daily spray, 300 μM glyphosate",47.9%
CC(C)C1(C)N=C(c2ncccc2C(=O)O)NC1=O (stereo not shown) [imazapyr],selection effectiveness in greenhouse,"[1]; ALS selectable marker, recovery of ALS transgenic plants",as effective as BSU
same,Number of escapes,[1]; [16],1
same,Number of events,[1]; [16],15
same,Transformation frequency (%),[1]; [16],26.8%
same,Number of escapes,[1]; [17],0
same,Number of events,[1]; [17],12
same,Transformation frequency (%),[1]; [17],21.4%
same,Number of escapes,[1]; [18],0
same,Number of events,[1]; [18],20
same,Transformation frequency (%),[1]; [18],35.7%
same,Number of escapes,[1]; [19],0
same,Number of events,[1]; [19],14
same,Transformation frequency (%),[1]; [19],25.0%
same,Number of escapes,[1]; [20],0
same,Number of events,[1]; [20],8
same,Transformation frequency (%),[1]; [20],14.3%
same,Number of escapes,[1]; [21],0
same,Number of events,[1]; [21],10
same,Transformation frequency (%),[1]; [21],17.9%
same,Number of escapes,[1]; [22],0
same,Number of events,[1]; [22],10
same,Transformation frequency (%),[1]; [22],19.2%
same,Number of escapes,[1]; [23],0
same,Number of events,[1]; [23],10
same,Transformation frequency (%),[1]; [23],18.5%

# Source: patent US20240327852A1, “METHODS OF TRANSFORMATION” (SYNGENTA CROP PROTECTION AG, priority 2019, published 2024)
